Source: patent US8246966B2, “Trypanosome microsome system and uses thereof” (priority 2006, dated 2012)

How the values were obtained:
[1] = test system: T. brucei microsomes (TbRM); experiment: Post-translational import of VSG-11786 into TbRM with inhibitors (Example 4); type: biochemical, Trypanosoma brucei
Description: FIGS. 7A to 7C. […] VSG-11786 mRNA was translated in rabbit reticulocyte lysate in the absence or presence of T. brucei cytosol for 1 hour at 37° C., and then cycloheximide was added to stop protein synthesis. TbRM (1 equivalent) and MAL3-101 (10 μM), MAL3-51 (10 μM), or an equal volume of DMSO was added to the samples on ice, and the mixture was incubated at 37° C. for 1.5 hours for translocation of VSG-11786 into the microsomes. Reaction mixtures were treated with proteinase K (PK) for one hour on ice. Proteolysis was terminated with PMSF. Proteins were precipitated with ammonium sulfate, pelleted by centrifugation, resuspended in SDS-PAGE sample buffer, and resolved by Tris-Tricine SDS-PAGE. Gel images were obtained with a phosphorimager and analyzed with Quantity-One software. Reaction mixtures for odd numbered lanes contained TbRM, but not proteinase K; even numbered lanes contained TbRM and proteinase K. Brackets denote lanes that were compared to obtain percentage of VSG-11786 import values. FIG. 7B is a graphical representation of data from FIG. 7A. […] In FIG. 7C, the effect of MAL3-101 on T. brucei growth.
FIGS. 8A to 8D. Effects of NFI028 and CAM741 on import of VSG-11786 into T. brucei microsomes. […] VSG-11786 mRNA was translated in rabbit reticulocyte lysate in the presence of T. brucei cytosol for one hour at 37° C., and then protein synthesis was stopped by the addition of cycloheximide. […] Reaction mixtures were treated with proteinase K (PK) on ice for one hour. Proteolysis was terminated with PMSF. Proteins were precipitated with ammonium sulfate, pelleted, resuspended in SDS-PAGE sample buffer, and resolved by Tris-Tricine SDS-PAGE. Images of radiolabeled proteins were obtained with a phosphorimager and quantitated with Quantity-One software. Samples depicted in odd numbered lanes contained TbRM, but were not treated proteinase K. Reaction mixtures shown in even numbered lanes contained TbRM and were treated with proteinase K. Brackets denote lanes that were compared to each other in order to obtain percentage of VSG-11786 import values. FIG. 8B is a graphical representation of data from FIG. 8A.
FIGS. 9A to 9D. Effects of azide, AEE788, and valinomycin on VSG-11786 import into T. brucei microsomes. […] VSG-11786 mRNA was translated in rabbit reticulocyte lysate in the presence of T. brucei cytosol for one hour at 37° C. Cycloheximide was added to stop proteins synthesis. TbRM (1 equivalent) and sodium azide (8 μM), AEE788 (8 μM), an equal volume of microsome buffer (RMB) or DMSO was added to the samples on ice, and the mixtures were incubated at 37 C for 1.5 hours. Reaction mixtures were treated with proteinase K (PK) on ice for one hour. Proteolysis was terminated with PMSF. Proteins were precipitated with ammonium sulfate, pelleted, resuspended in SDS-PAGE sample buffer, and resolved by Tris-Tricine SDS-PAGE. Images of radiolabeled proteins were obtained with a phosphorimager and quantitated with Quantity-One software. Brackets show lanes that were compared to each other in order to obtain percentage of VSG-11786 imported into TbRM. Lanes 1, 3, 5, & 7 were treated with TbRM, but not proteinase K. Lanes 2, 4, 6, & 8 were treated with TbRM and proteinase K. FIG. 9B is a graphical representation of data from FIG. 9A. […] Reaction mixtures depicted in odd lanes contained TbRM, but were not treated with proteinase K; even lanes contained TbRM and were treated with proteinase K. FIG. 9D is a graphical representation of data from panel FIG. 9C.

[2] = test system: Bloodstream T. brucei CA427; experiment: Bloodstream T. brucei cell culture drug susceptibility (Example 4); type: cell-based, Trypanosoma brucei; settings: cultured bloodstream T. brucei; read-out: IG50, T. brucei growth
Description: Cell Culture. Bloodstream T. brucei cell culture and drug susceptibility studies were performed as previously described. Bloodstream T. brucei CA427 were cultured in HMI-9 media (Hirumi and Hirumi, 1994, Parasitol Today; 10(2):80-4) to a density of 10^6 cells/ml. Cells were seeded (500 μl of 4×10^4 cells/ml) to a 24-well plate and exposed to MAL3-101, CAM741, and NFI028 at listed concentrations (see figure legends) or an equal volume of DMSO. Cells were incubated at 37° C. and counted after 24 and 48 hours, using a hemocytometer.

[3] = test system: bloodstream T. brucei; settings: del Rayo Camacho et al., 2002; read-out: IC50 of drug used to treat human African trypanosomiasis; cited from earlier work

CAM741
VSG-11786 import into TbRM ([1]; CAM741 1 μM, DMSO 74%): 73%
IC50 [2]: 2000 nM

Cc1ccc(C(=O)Nc2ccc(S(=O)(=O)O)c3cc(S(=O)(=O)O)cc(S(=O)(=O)O)c23)cc1NC(=O)c1cccc(NC(=O)Nc2cccc(C(=O)Nc3cc(C(=O)Nc4ccc(S(=O)(=O)O)c5cc(S(=O)(=O)O)cc(S(=O)(=O)O)c45)ccc3C)c2)c1 [suramin]
IC50 [3]: 1400 to 2300 nM

N=C(N)c1ccc(OCCCCCOc2ccc(C(=N)N)cc2)cc1 [pentamidine]
IC50 [3]: 0.3 nM

CC(C)[C@@H]1NC(=O)[C@H](C)OC(=O)[C@@H](C(C)C)NC(=O)[C@@H](C(C)C)OC(=O)[C@H](C(C)C)NC(=O)[C@H](C)OC(=O)[C@@H](C(C)C)NC(=O)[C@@H](C(C)C)OC(=O)[C@H](C(C)C)NC(=O)[C@H](C)OC(=O)[C@@H](C(C)C)NC(=O)[C@@H](C(C)C)OC1=O [valinomycin]
efficiency of VSG-11786 import into TbRM ([1]; valinomycin 0.5 μM): not affected

CCN1CCN(Cc2ccc(-c3cc4c(N[C@H](C)c5ccccc5)ncnc4[nH]3)cc2)CC1 [AEE788]
inhibition of post-translational import of VSG-11786 into TbRM ([1]; AEE788 8 μM): failed to inhibit
